Settings: for surface tension liquid-gas: Maximal bubble pressure; for viscosity / mass density / electrical conductivity: 101.33 kPa, Liquid; for viscosity: Concentric cylinders viscometry; for mass density: Vibrating tube method; for electrical conductivity: Alternating current cell with electrodes

CCCCn1cc[n+](C)c1C.O=S(=O)([O-])O [1-butyl-2,3-dimethylimidazolium hydrogen sulfate]
Settings	electrical conductivity [S/m]	mass density [kg/m3]	surface tension liquid-gas [mN/m]	viscosity [mPa·s]
288.15 K	–	1217.09	45.3	628.5
293.15 K	–	1213.74	45	469.7
298.15 K	0.1	1210.61	44.8	355.2
303.15 K	0.135	1207.35	44.5	271.3
308.15 K	0.179	1203.89	44.2	206.3
313.15 K	0.231	1200.63	43.9	157.2
318.15 K	0.292	1197.49	43.7	121.8
323.15 K	0.36	1194.03	43.4	95.86
328.15 K	0.441	1190.8	43.1	74.49
333.15 K	0.531	1187.57	42.8	60.7
338.15 K	0.631	1184.29	42.6	46.52
343.15 K	0.739	1180.99	42.3	38.13

CCCCn1cc[n+](C)c1.O=P([O-])(O)O [1-butyl-3-methylimidazolium dihydrogen phosphate]
Settings	electrical conductivity [S/m]	mass density [kg/m3]	surface tension liquid-gas [mN/m]	viscosity [mPa·s]
288.15 K	0.303	1183.24	44.2	198.7
293.15 K	0.359	1179.91	43.9	159
298.15 K	0.419	1176.54	43.6	125.6
303.15 K	0.483	1173.18	43.2	101.1
308.15 K	0.555	1169.69	42.9	80.78
313.15 K	0.628	1166.3	42.6	65.21
318.15 K	0.707	1162.8	42.3	53.62
323.15 K	0.788	1159.53	42	43.67
328.15 K	0.868	1156.13	41.7	36.75
333.15 K	0.965	1152.67	41.4	29.77
338.15 K	1.06	1149.36	41.1	25.21
343.15 K	1.16	1146.03	40.8	20.96

CCCCn1cc[n+](C)c1.O=C([O-])O [1-butyl-3-methylimidazolium hydrogen carbonate]
Settings	electrical conductivity [S/m]	mass density [kg/m3]	surface tension liquid-gas [mN/m]	viscosity [mPa·s]
288.15 K	0.274	1164.1	34.9	122.9
293.15 K	0.322	1160.5	34.4	94.8
298.15 K	0.376	1157.08	34	73.73
303.15 K	0.439	1153.64	33.5	57.64
308.15 K	0.496	1150	33.1	45.33
313.15 K	0.557	1146.51	32.6	35.86
318.15 K	0.622	1142.95	32.2	28.85
323.15 K	0.689	1139.45	31.7	22.93
328.15 K	0.755	1136.1	31.2	18.54
333.15 K	0.823	1132.53	30.8	14.81
338.15 K	0.893	1128.92	30.4	11.88
343.15 K	0.963	1125.52	29.9	10.04

CCn1cc[n+](C)c1C.O=S(=O)([O-])O [1-ethyl-2,3-dimethylimidazolium hydrogen sulfate]
Settings	electrical conductivity [S/m]	mass density [kg/m3]	surface tension liquid-gas [mN/m]	viscosity [mPa·s]
288.15 K	–	1261.94	50.4	375
293.15 K	–	1258.09	50.1	263.6
298.15 K	0.15	1254.43	49.8	186
303.15 K	0.193	1250.77	49.5	134.9
308.15 K	0.244	1247.08	49.3	98.41
313.15 K	0.308	1243.3	49	72.94
318.15 K	0.377	1239.59	48.7	53.72
323.15 K	0.458	1235.8	48.4	40.12
328.15 K	0.554	1232.2	48.1	30.2
333.15 K	0.665	1228.52	47.8	22.37
338.15 K	0.787	1224.82	47.5	17.96
343.15 K	0.925	1221.18	47.2	12.57

CCCCC[n+]1ccn(C)c1.O=P([O-])(O)O [1-methyl-3-pentylimidazolium dihydrogen phosphate]
Settings	electrical conductivity [S/m]	mass density [kg/m3]	surface tension liquid-gas [mN/m]	viscosity [mPa·s]
288.15 K	0.164	1148.62	41.8	327.8
293.15 K	0.201	1145.42	41.5	259.1
298.15 K	0.243	1142.29	41.2	205
303.15 K	0.29	1139.09	40.9	162.6
308.15 K	0.341	1135.81	40.6	130
313.15 K	0.398	1132.55	40.3	103.3
318.15 K	0.457	1129.43	40	84.04
323.15 K	0.523	1126.27	39.7	68.45
328.15 K	0.588	1122.94	39.3	56.55
333.15 K	0.665	1119.93	39	46.91
338.15 K	0.744	1116.63	38.7	38.55
343.15 K	0.825	1113.49	38.4	31.43

CCC[n+]1ccn(C)c1.O=P([O-])(O)O [1-methyl-3-propylimidazolium dihydrogen phosphate]
Settings	electrical conductivity [S/m]	mass density [kg/m3]	surface tension liquid-gas [mN/m]	viscosity [mPa·s]
288.15 K	0.469	1202.41	46.4	99.38
293.15 K	0.536	1198.96	46.1	78.41
298.15 K	0.613	1195.45	45.8	61.92
303.15 K	0.693	1191.95	45.5	49.58
308.15 K	0.785	1188.45	45.2	39.3
313.15 K	0.879	1184.95	44.9	32.16
318.15 K	0.977	1181.43	44.6	25.81
323.15 K	1.08	1177.89	44.3	21.02
328.15 K	1.19	1174.36	44	17.17
333.15 K	1.3	1170.8	43.7	13.85
338.15 K	1.41	1167.24	43.4	11.43
343.15 K	1.55	1163.66	43.1	10.04

CCCCCn1cc[n+](C)c1C.O=S(=O)([O-])O [2,3-dimethyl-1-pentylimidazolium hydrogen sulfate]
Settings	electrical conductivity [S/m]	mass density [kg/m3]	surface tension liquid-gas [mN/m]	viscosity [mPa·s]
288.15 K	–	1196.47	42.5	772.4
293.15 K	–	1193.23	42.2	597
298.15 K	0.075	1190.07	42	462.8
303.15 K	0.105	1186.89	41.7	358.7
308.15 K	0.145	1183.89	41.5	281.1
313.15 K	0.197	1180.69	41.2	224.2
318.15 K	0.257	1177.69	40.9	176
323.15 K	0.324	1174.61	40.7	140.1
328.15 K	0.399	1171.29	40.4	113
333.15 K	0.485	1168.33	40.1	90
338.15 K	0.573	1165.21	39.9	73.77
343.15 K	0.675	1162.18	39.6	57.54

CCCn1cc[n+](C)c1C.O=S(=O)([O-])O [2,3-dimethyl-1-propylimidazolium hydrogen sulfate]
Settings	electrical conductivity [S/m]	mass density [kg/m3]	surface tension liquid-gas [mN/m]	viscosity [mPa·s]
288.15 K	–	1239.79	47.7	500.4
293.15 K	–	1236.23	47.4	362.3
298.15 K	0.123	1232.82	47.2	263.7
303.15 K	0.162	1229.24	46.9	194.2
308.15 K	0.211	1225.73	46.6	142.2
313.15 K	0.267	1222.13	46.3	107
318.15 K	0.333	1218.82	46.1	81.27
323.15 K	0.409	1215.29	45.8	62.04
328.15 K	0.496	1211.74	45.5	47.83
333.15 K	0.6	1208.35	45.2	35.71
338.15 K	0.711	1204.81	44.9	27.47
343.15 K	0.832	1201.46	44.7	21.17

CCCCCn1cc[n+](C)c1.O=C([O-])O [3-methyl-1-pentylimidazolium hydrogen carbonate]
Settings	electrical conductivity [S/m]	mass density [kg/m3]	surface tension liquid-gas [mN/m]	viscosity [mPa·s]
288.15 K	0.143	1148.91	31.9	179.6
293.15 K	0.193	1145.21	31.4	138.9
298.15 K	0.248	1141.79	30.9	108.6
303.15 K	0.305	1138.28	30.4	85.09
308.15 K	0.367	1134.77	29.9	66.77
313.15 K	0.428	1131.33	29.4	53.12
318.15 K	0.489	1127.75	29	42.53
323.15 K	0.553	1124.28	28.5	33.29
328.15 K	0.612	1120.73	28	26.92
333.15 K	0.671	1117.27	27.5	21.42
338.15 K	0.733	1113.75	26.9	17.65
343.15 K	0.794	1110.3	26.5	14.71
